Test results as given in patent US11965159B2, “Compositions and methods for regulating proteins and nucleic acids activities” (THE BROAD INSTITUTE, INC., priority 2019, dated 2024).
“Also recorded” adds a separate entry of the source.

Experiments:
[1] = molecular target: T1, dCas9-cytidine deaminase conjugate (BE3) (UniProt P14739+P38483+Q99ZW2, D10A); experiment: BE3 base-editing of EMX1 gene in HEK293T cells; assay type: cell-based; conditions: 1.25-20 μM, 72 h; BE3:gRNA ribonucleoprotein delivery
T1 construct: His6 (N); made in house; host or cells: E. coli BL21 Star (DE3); purified protein lipofected as BE3:gRNA RNP into HEK293T cells
Experimental: Protein transfection of base editor BE3 into HEK293T cells. HEK293T cells were seeded on 48-well BioCoat® poly-D-lysine plates (Corning®) in 250 μL of antibiotic-free medium and transfected at ˜70% confluency. Prior to protein transfection, cells were incubated with 2 μL of DMSO-suspended BRD7087 or BRD5779 at the indicated concentration for 2-3 hours. BE3 protein was incubated with 1.1× molar excess of EMX1-targeting sgRNA at a final concentration ratio of 200 nM: 220 nM (based on a total well volume of 275 μL). The complex was mixed with 0.2 μL of compound for five minutes, incubated with 1.5 μL Lipofectamine™ 2000 (THERMOFISHER) and transfected according to the manufacturer's protocol plasmid delivery. […]
Purifications and sequencing of genomic DNA. […] Barcoded samples were pooled and purified by gel extraction (QIAGEN) before quantification using the Qubit™ dsDNA HS Kit (THERMOFISHER) and qPCR (KAPA BioSystems) according to the manufacturer's instructions. Sequencing of pooled samples was performed using a single-end read from 260 to 300 bases on the MiSeq™ ([…]) according to the manufacturer's instructions.
Analysis of base-edited sequences. Nucleotide frequencies were analyzed using a previously described MATLAB script 5. Briefly, the reads were aligned to the reference sequence via the Smith-Waterman algorithm. […]

[2] = tested on: CRISPR-Cas9 based immunity in S. aureus RN4220; experiment: Bacterial resistance study against phage (CRISPR immunity, OD600 growth curves); assay type: cell-based; conditions: 5-20 μM, 16 h, MOI 1
Experimental: Bacterial study. Plasmid pRH248 harboring SpCas9, tracrRNA and a single-spacer array ([…]) (SEQ ID NO:7) targeting phage DNM474 was constructed via BsaI cloning onto pDB114 as described in Heler et al 6. Plate reader growth curves of bacteria infected with phage were conducted as described previously with minor modifications 7. Overnight cultures were diluted 1:100 into 2 ml of fresh BHI supplemented with appropriate antibiotics and 5 mM CaCl2) and grown to an OD600 of ˜0.2. Immune cells carrying pRH248 were diluted with cells lacking CRISPR-Cas in a 1:10,000 ratio. Following a 15-minute pre-incubation with DMSO or with varying amounts of inhibitors (5-20 μM), the cultures were infected with DNM474 at an initial MOI of 1. To produce plate reader growth curves, 200 μL of infected cultures, normalized for OD600, were transferred to a 96-well plate in triplicate. OD600 measurements were collected every 10 minutes for 16 hours. Similarly, growth curves to evaluate the toxicity of the compounds at 20 μM (FIG. 32) were conducted on cultures lacking CRISPR in the absence of phage.
Bacterial study. […] Plate reader growth curves of bacteria infected with phage were conducted as described previously with minor modifications^7. […] To produce plate reader growth curves, 200 μL of infected cultures, normalized for OD600, were transferred to a 96-well plate in triplicate. […]

Compound	inhibition of BE3-mediated base-editing (C→T conversion, EMX1) [1]	blockage of CRISPR-Cas9 immunity (sensitization of immune bacteria to phage, OD600) [2]
COc1ccc(-c2ccc3c(c2)[C@H]2[C@H](CCN2Cc2ccncc2)[C@@H](CO)N3)cc1 [BRD5779, ((3aR,4S,9bR)-8-(4-Methoxyphenyl)-1-(pyridin-4-ylmethyl)-2,3,3a,4,5,9b-hexahydro-1H-pyrrolo[3,2-c]quinolin-4-yl)methanol]	efficient and dose-dependent inhibition	dose-dependent blockage of CRISPR-Cas9 based immunity; also recorded: able to sensitize the immune bacterial cells against target phage in a dose-dependent manner
OC[C@H]1Nc2ccc(-c3cccc(F)c3)cc2[C@H]2[C@@H]1CCN2Cc1ccncc1 [BRD7087, ((3aR,4S,9bR)-8-(3-Fluorophenyl)-1-(pyridin-4-ylmethyl)-2,3,3a,4,5,9b-hexahydro-1H-pyrrolo[3,2-c]quinolin-4-yl)methanol]	efficient and dose-dependent inhibition	dose-dependent blockage of CRISPR-Cas9 based immunity; also recorded: able to sensitize the immune bacterial cells against target phage in a dose-dependent manner; also recorded: higher activity
